Test results taken from patent US20260048155A1, “BIOCOMPATIBLE PARAHYDROGEN HYPERPOLARIZED SOLUTIONS BY PRECIPITATION AND RE-DISSOLUTION” (North Carolina State University, priority 2022, published 2026).
Where “and” joins values, the source holds several entries; their conditions need not be identical. Equal values may be shown once.

Assays:
[1] = Precipitation without water addition: 13C polarization of residual dissolved pyruvate in organic phase; assay type: physicochemical; settings: for P13C in precipitated sample, no water added / 13C polarization in precipitated sample, no water added: residual dissolved pyruvate in EtAc/CH3OH
Method: To investigate the impact of precipitate relaxation in variable magnetic fields during the dissolution process, the Re-D SABRE experiment was repeated, omitting the addition of water after precipitation (i.e., the decay of ^13C HP signal in the dissolved phase of the precipitated samples was measured). […] For (iii), P13C was still much lower compared to the sample that rested at the 1.4 T magnet (setup iv), i.e., P13C=0.08±0.02% and P13C=3.4±0.9%, respectively—this signal is entirely derived from the remaining dissolved pyruvate in solution (2.3±0.6 mM in the 500 μL sample of EtAc and CH3OH, FIG. 17) not from the precipitated micro-crystalline phase. […] This observation is important because it means the Re-D SABRE process can be successfully performed at storage fields as low as 0.3 T. The rapid ^13C T1 of HP [1-^13C]pyruvate in the EtAc fraction at Earth's field, estimated to be <1.3 s, may be caused by the high catalyst: substrate ratio in the EtAc.
Description of the magnets used in the precipitation and relaxation study: The precipitation and phase separation approach was investigated at 4 different magnetic fields: (i) Earth's field; (ii) 10 mT; (iii) 0.3 T; and (iv) 1.4 T. For (i), the samples were positioned in a plastic holder at a defined position in the laboratory at which a magnetic field of ≈40 μT was measured. For (ii), a modified setup of permanent magnets creating a 10 mT magnetic field over a volume of ≈20×10×10 cm^3 was employed. For (iii), a hollow cylindrical magnet (K&J Magnetics, Inc., P/N RY04Y0) was used with a length of 5.1 cm and an inner bore of approximately 6.4 mm diameter in which the NMR tube was positioned. For (iv), the NMR benchtop spectrometer was used, which approximately provides the constant 1.4 T field up to 10 cm above the magnet center.

[2] = SABRE-SHEATH hyperpolarization, 13C polarization quantified at 1.4 T benchtop NMR; assay type: physicochemical
Method: A previously reported setup and experimental protocol has been used to prepare high P13C of up to ≈14.5% of 30 mM [1-^13C]pyruvate in methanol, which was confirmed after transferring the HP samples from the polarizer into a 1.4 T benchtop ^1H/^13C NMR system. The mean of N=19 experiments from 9 samples measured on 5 different days under the same conditions was 8±2%. […] These hyperpolarization values correspond to ^13C enhancement ε13C of ≈75,000-fold. The optimal experimental parameters are obtained via sweeping the static magnetic field (optimum transfer field BT≈0.4 μT) and temperature (TT≈10° C.) using a p-H2 flow rate of 75 standard cubic centimeters per minute (scc/m), and ≈7 bar total pressure, FIGS. 4A-4B, respectively.
CD3OD is widely used as the SABRE-reaction-hosting solvent because it provides convenient means of attaining high-field NMR spectrometer lock. However, non-deuterated polarization media may be preferred for biomedical applications. For this reason, systematic relaxation dynamics studies were performed comparing CD3OD, CH3OH, and C2H5OH for SABRE-SHEATH [1-^13C]pyruvate hyperpolarization, investigating relevant parameters for these solvents and for fixed concentrations of pyruvate, SABRE catalyst, and DMSO (30 mM, 6 mM, and 40 mM, respectively). However, the ethanol sample was prepared with only 6 mM pyruvate and 10% H2O due to limited solubility. The optimal Br was similar in all investigated samples (≈0.4 μT, FIG. 4A). […] (FIG. 4B). Thus, all the experiments described below were performed using these optimized Br and Tr parameters.
Preparation of samples: Parahydrogen was enriched to >99.10% and filled into aluminum cylinders at 350 psi using a setup described previously. The SABRE samples were prepared in CD3OD (CAS: DLM-24-25), CH3OH (CAS: 67-56-1), or ethanol (CAS: 64-17-5) using the stated concentration of sodium pyruvate (in most cases 30 mM, natural abundance—CAS: 113-24-6; [1-^13C]-labeled—CAS: 490709-250 MG), an iridium catalyst at 6 mM concentration synthesized as described previously, doped with 40 mM dimethyl sulfoxide (DMSO) to block one active center of the catalyst and to avoid pyruvate from binding to the catalyst at two sites. Oxygen was removed from the samples by guiding argon gas at approximately ambient pressure through the samples for ˜1 min. Also, oxygen was removed from all solvents used for the preparation of the samples (methanol or ethanol) or for the precipitation of pyruvate (ethyl acetate (EtAc), room temperature, CAS: 141-78-6) prior to mixing them to the catalyst substrate solutions. For the SABRE experiments, the samples were filled into medium wall, or in case of precipitation studies, into regular wall NMR tubes (SKU: WG-1000-8, outer diameter 5 mm, inner diameter 4 mm and length 8 inches). Note that the total volume of the catalyst-substrate sample was 600 μL (in the baseline and solvent study) or 100 μL in experiments were precipitation and phase separation were performed. In case of dissolution SABRE, 300 μL of room-temperature H2O (HPLC grade-submicron filtered) or D2O (CAS: 7789-20-0) were added.
SABRE hyperpolarization setup: The experimental setup has been used previously but will be described in much greater detail elsewhere. Briefly, it consisted of a 3-layer mu-metal of 3″ I.D. and 9″ DEPTH to shield external magnetic fields (Magnetic Shield Corporation, ZG-203), combined with a custom-made solenoid to generate a static magnetic field, B0, of ˜300 nT (28 AWG wire, 650 windings, 7″ homogeneous length). Note that this coil provided a constant magnetic field here (5 VDC power supply connected to the solenoid via a resistor board to regulate the current and effectively set the magnetic field). […]

CC(=O)[13C](=O)O [[1-^13C]pyruvate]
P13C in precipitated sample, no water added ([1]; 0.3 T (iii)): 0.08±0.02% | P13C in precipitated sample, no water added ([1]; 1.4 T (iv)): 3.4±0.9% | 13C polarization in precipitated sample, no water added ([1]; 10 mT (ii)): no measurable ^13C polarization was observed | 13C polarization in precipitated sample, no water added ([1]; Earth's field (i)): no measurable ^13C polarization was observed | P13C in (iii) 0.3 T lower than in (iv) 1.4 T ([1]; dissolved phase in EtAc fraction): ≈ 40 times | fold lower P13C compared to CH3OH and CD3OD ([2]; 6 mM in 90% C2H5OH + 10% H2O): 1.4 fold | P13C ([2]; 30 mM in CD3OD, representative polarization build-up at 0.4 μT): 8.5±0.1% | P13C ([2]; 30 mM in CH3OH, representative polarization build-up at 0.4 μT): 7.8±0.1% | P13C, mean ([2]; 30 mM in methanol, N=19 experiments from 9 samples on 5 days, inter-day mean with s.d.): 8±2% | P13C, maximum ([2]; 30 mM in methanol, SABRE-SHEATH, detected at 1.4 T): ≈ 14.5% and 14.5% | P13C ([2]; 60 mM in CH3OH, 6 mM catalyst, p-H2 80 scc/m): 3.7±0.06% | P13C, mean base-line before precipitation ([2]; in CH3OH, batch used for filtering tests): 10±1% | 13C enhancement ε13C ([2]; in methanol, vs thermal polarization at 1.4 T): ≈ 75,000 fold
